From patent US20160311911A1, “METHODS FOR TREATING ALLERGIC AIRWAY INFLAMMATION” (priority 2015, published 2016)
One block for each molecule: values may come before it.

Key:
NF-κB = test: RWPE single-challenge model after intranasal NF-κB inhibitor; format: in vivo; settings: WT mice; intranasal 1 hour before RWPE; BAY 11-7082 10 mg/kg, NEMO-binding domain binding peptide 25 per mouse; 16 hours
Description: WT mice were intranasally challenged with a single dose of RWPE or CDE (100 μg/60 μL) and euthanized after 16 hours. In additional experiments, 1 hour before RWPE challenge, WT mice were treated with or without intranasal administration of a nuclear factor κB (NF-κB) inhibitor that selectively irreversibly blocks IκBα phosphorylation with BAY 11-7082 (10 mg/kg body weight; Calbiochem, San Diego, Calif.) (13) or NEMO-binding domain binding peptide (25 per mouse, Calbiochem) (14). These treated mice were challenged with RWPE and euthanized, as described above. Total and differential bronchoalveolar lavage fluid (BALF) cell counts were performed (16). Lungs were perfused and fixed with Zn fixative (BD Biosciences, San Jose, Calif.), and sections were stained with periodic acid-Schiff for mucus staining.

CXCR2 [1] = target: T1, CXCR2 (Mus musculus, UniProt P35343); test: RWPE repeated-challenge model with CXCR2 inhibitor; format: in vivo; settings: WT mice
T1 construct: endogenous in cells; host or cells: wild-type mice in vivo (receptor on neutrophils)
T1 sequence (P35343 1-359): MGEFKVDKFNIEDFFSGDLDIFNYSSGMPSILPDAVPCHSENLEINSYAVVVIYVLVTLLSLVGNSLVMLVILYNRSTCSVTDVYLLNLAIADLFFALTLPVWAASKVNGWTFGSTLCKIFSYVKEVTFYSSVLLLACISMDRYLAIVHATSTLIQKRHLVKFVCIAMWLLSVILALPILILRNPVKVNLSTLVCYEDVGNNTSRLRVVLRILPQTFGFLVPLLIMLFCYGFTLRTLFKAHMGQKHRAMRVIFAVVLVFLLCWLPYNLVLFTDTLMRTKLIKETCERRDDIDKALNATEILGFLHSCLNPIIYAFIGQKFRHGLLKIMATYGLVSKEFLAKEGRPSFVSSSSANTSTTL
Description: WT mice or Tlr4 KO mice were sensitized by five intranasal doses of RWPE (100 μg/60 μl) on Days 0, 1, 2, 3, and 4. These mice were challenged with intranasal RWPE or PBS on Day 11 and killed on Day 14 (14). In addition, WT mice were sensitized by five intranasal doses of RWPE on Days 0, 1, 2, 3, and 4 with RWPE with or without the intranasal administration of 4 mg/kg body weight SB225002 (16) 1 hour before each intranasal dose of RWPE. The mice were challenged with intranasal RWPE on Day 11 and killed on Day 14 (14). In some experiments, Tlr4 KO mice were sensitized by five intranasal doses of RWPE on Days 0, 1, 2, 3, and 4 in the presence or absence of X+XO and challenged with intranasal RWPE in the presence or absence of X+XO on Day 11 and killed on Day 14 as described above (14). In some experiments, RWPE and negatively selected neutrophils derived from bone marrow of donor mice were repeatedly intranasally instilled in Tlr4 KO mice. The purity of neutrophils was assessed to be 99% by FACS. Tlr4 KO mice were intranasally administered neutrophils (4×10^6 neutrophils per mouse) 8 hours after intranasal instillation of RWPE on Days 0, 1, 2, 3, 4, and 11 and killed on Day 14 as described previously to evaluate allergic inflammation.
(§1) Bronchoalveolar lavage fluid (BALF) and histological examinations including PAS staining for mucin were performed as described previously (Sur et al., J Immunol 1996; 157(9):4173-4180). In some experiments, leukotriene B4 (LTB4), CXCL1/2, IL-5, IL-13, TSLP, and IL-33 in BALF were assayed using ELISA kits (R&D Systems, Minneapolis, Minn.)
Mucin production was assessed by two investigators who were blinded to the treatment groups using a modification of a method reported (Wild et al., 2000, J Immunol 2000; 164(5):2701-2710) on a subjective scale of 0, 1, 2, 3, and 4 corresponding to none, mild, moderate, marked, or severe mucin deposition, respectively. The data were expressed as mean of score recorded by two blinded investigators.
RWPE-specific IgE was measured using a previously described procedure (Wild et al., J Immunol 2000; 164(5):2701-2710). Briefly 96-well plates were coated with 100 ug/ml of RWPE protein overnight. After washing and blocking, diluted sera from the mice treated as above were applied. The plates were incubated with biotin-conjugated […] (clone R35-72; BD Biosciences, San Jose, Calif.) for 2 hours at room temperature, washed and incubated with avidin-conjugated alkaline phosphatase. After washing, fluorometric values for each well were recorded after addition of AttoPhos substrate solution (Promega, Madison, Wis.).

CXCR2 [2] = target: T1, CXCR2; test: Ex vivo superoxide generation from BALF cells after RWPE challenge; format: in vivo; settings: WT mice; 4 mg/kg intranasal 1 hour before RWPE; 16 hours after RWPE challenge
Description: WT mice and Tlr4 KO mice were challenged with 100 μg of RWPE or PBS and sacrificed at 0.5 and 16 hours. Ex vivo superoxide generation by BALF cells was measured by a mixture of two probes to optimize sensitivity of detection of superoxide (luminol and Diogenes) (Yamazaki et al., Trop Med Health 2011; 39(2):41-45). In additional experiments, WT mice with intranasal administration of the CXCR2 inhibitor SB225002 (4 mg/kg body weight) 1 hour before RWPE challenge, and ex vivo superoxide generation from cells in BALF was quantified.

CXCR2 [3] = target: T1, CXCR2; test: RWPE single-challenge model with CXCR2 inhibitor: BALF cell counts; format: in vivo; settings: WT mice
Description: WT mice and Tlr4 KO mice were intranasally challenged with a single dose of 100 μg/60 μl RWPE reconstituted from lyophilized RWPE (Greer Laboratories, Lenoir, N.C.) and killed after 0.5, 1, 4, 16, or 72 hours. In some experiments, to generate superoxide (7, 15), Tlr4 KO mice were intranasally challenged with 0.32 mM xanthine (X) (Sigma-Aldrich, St. Louis, Mo.) with 50 mU xanthine oxidase (XO) (Sigma-Aldrich) in the presence or absence of RWPE. In some experiments, 1 hour before RWPE challenge, WT mice were treated with intranasal administration of 4 mg/kg body weight chemokine (C-X-C motif) receptor 2 (CXCR2) inhibitor SB225002 (Calbiochem, San Diego, Calif.) and challenged with RWPE and killed as described above.
as §1

IgE = settings: reference 20; cited from earlier work
[4] = 4 mg/kg intranasal before each RWPE dose, vs vehicle

Sequence of IgE (P01854 1-428 isoform P01854-1): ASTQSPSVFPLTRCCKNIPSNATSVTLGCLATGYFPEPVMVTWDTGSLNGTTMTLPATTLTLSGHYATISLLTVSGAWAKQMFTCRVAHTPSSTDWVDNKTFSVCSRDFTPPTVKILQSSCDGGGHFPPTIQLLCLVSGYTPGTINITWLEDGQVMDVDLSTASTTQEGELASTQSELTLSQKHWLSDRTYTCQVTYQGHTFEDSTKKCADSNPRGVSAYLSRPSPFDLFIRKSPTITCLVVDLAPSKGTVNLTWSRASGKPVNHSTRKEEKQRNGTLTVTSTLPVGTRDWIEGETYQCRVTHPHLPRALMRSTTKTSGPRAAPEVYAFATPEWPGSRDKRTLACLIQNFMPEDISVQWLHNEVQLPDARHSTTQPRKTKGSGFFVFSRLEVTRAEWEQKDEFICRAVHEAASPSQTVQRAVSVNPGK

Molecule: Cc1ccc(S(=O)(=O)/C=C/C#N)cc1 [BAY 11-7082]
RWPE challenge-induced neutrophil recruitment into the airways (NF-κB): decreased

RWPE-induced allergic inflammation (CXCR2 [1]; 4 mg/kg intranasal 1 hour before each RWPE dose, compared with vehicle): attenuated
decrease in BALF eosinophils (CXCR2 [1]; [4]): 50 to 80%
decrease in BALF level of IL-5 (CXCR2 [1]; [4]): 50 to 80%
decrease in BALF level of IL-13 (CXCR2 [1]; [4]): 50 to 80%
decrease in BALF level of IL-33 (CXCR2 [1]; [4]): 50 to 80%
decrease in BALF level of TSLP (CXCR2 [1]; [4]): 50 to 80%
decrease in BALF total inflammatory cells (CXCR2 [1]; [4]): 50 to 80%
decrease in accumulation of mucin in epithelial cells (CXCR2 [1]; [4]): 50 to 80%
decrease in serum RWPE-specific IgE (CXCR2 [1]; [4]): 50 to 80%
RWPE-induced recruitment of superoxide-generating cells (ex vivo superoxide generation of BALF cells) (CXCR2 [2]): blocked
suppression of neutrophil recruitment into the lungs (BALF neutrophils) (CXCR2 [3]; 4 mg/kg intranasal 1 hour before RWPE challenge, 16 hours after challenge): 66%
number of other cell types in BALF (CXCR2 [3]; inhibitor before RWPE challenge, data not shown): did not alter
Molecule: O=C(Nc1ccc([N+](=O)[O-])cc1O)Nc1ccccc1Br [SB225002]

Molecule: Omalizumab: marketed drug cited for cat allergen exposure
severity of acute airway obstruction and symptoms caused by exposure to cat allergen (IgE): ameliorates
